Experimental data reported in US8021664B2, “Tumor antigens Bfa5 for prevention and/or treatment of cancer” (Sanofi Pasteur Limited, priority 2003, dated 2011).
Where no end group is shown, it is not given here. KLH = keyhole limpet hemocyanin carrier protein

How the values were obtained:
HLA-A*0201 human T cells = assay: IFN-γ ELISPOT on human T-cell cultures activated with BFA5 peptides pulsed on autologous dendritic cells; format: cell-based; conditions: for BFA5 peptides eliciting high IFN-γ release (>200 spots/100,000 cells): a peptide given is positive
Method: A library of 100 peptides from the BFA5/NYBR-1 coding sequence that are predicted to be medium to high binders to HLA-A*0201 were designed using Rammensee and Parker algorithms. The library was sub-divided into 10 pools of ten peptides (Table III), and each pool was used to activate 10 different T cell cultures after pulsing peptides on to mature autologous dendritic cells.
ELISPOT analysis was performed on human T-cell cultures activated through four rounds of stimulation with each pool of BFA5 peptides. Reactivity against a CMV pp 65 peptide and a Flu matrix peptide were used as positive controls for T-cell activation in the experiments. Each experiment was performed with PBMC and dendritic cells from a single HLA-A*0201^+ donor designated as “AP10”. […] Similar results were obtained for both BFA4 and BFA5/NYBR-1 with a different HLA-A*0201. […] Cultures having a reading of 600 spots have more than this number of spots.
A large number of the BFA5 peptide pools of are reactive as shown by the high levels of IFN-γ production. Each reactive peptide pool was then separated into individual peptides and analyzed for immunogencity using ELISPOT analysis to isolate single reactive BFA5 peptides. BFA5 is highly immunogenic with several reactive single peptides than that of BFA4. Similar results were obtained in two independent PBMC culture experiments.

peptide-loaded T2 cells = assay: 51Cr-release CTL assay of peptide-activated T cells; conditions: a peptide given is positive
Method: In addition to ELISPOT analysis, human T cells activated by BFA5 peptides were assayed to determine their ability to function as CTL. The cells were activated using peptide-pulsed dendritic cells followed by CD40 ligand-activated B cells (5 rounds of stimulation). […] Isolated T cells were tested in ^51Cr-release assays using peptide-loaded T2 cells. The % specific lysis at a 10:1, 5:1, and 1:1 T-cell to target ratio is shown for T2 cells pulsed with either pools of BFA5/NYBR-1 peptides or with individual peptides.

[1] = Rabbit immunization with BFA5 peptides, serum IgG titer; format: in vivo; conditions: for IgG titer × 10^5 (After first Immunization Rb1/Rb2): after first immunization (peptide in FCA); for IgG titer × 10^5 (After second Immunization Rb1/Rb2): after second immunization (KLH-coupled peptide in FIA)
Method: Prebleed samples from rabbits were processed and stored at −20° C. Rabbits were immunized as follows: 1) the peptides were administered as an emulsion with Freund's Complete Adjuvant (FCA); and, 2) two weeks later, the peptides were coupled with Keyhole-Limpet Hemocyanin (KLH)-coupled and administered as an emulsion with Freund's Incomplete Adjuvant FIA.

## 8 (KVSIPTKAL; listed as Homo sapiens) [compound 8]
HLA-A*0201 human T cells; Donor AP10
  BFA5 peptides eliciting high IFN-γ release (>200 spots/100,000 cells): KVSIPTKAL
peptide-loaded T2 cells; Donor AP31
  BFA5 peptides inducing CTL lysis of pulsed cells: KVSIPTKAL

## 78 (VFAADICGV; listed as Homo sapiens) [compound 78]
HLA-A*0201 human T cells; Donor AP31
  BFA5 peptides eliciting high IFN-γ release (>200 spots/100,000 cells): VFAADICGV

## 12 (SVPNKALEL; listed as Homo sapiens) [compound 12]
HLA-A*0201 human T cells; Donor AP10
  BFA5 peptides eliciting high IFN-γ release (>200 spots/100,000 cells): SVPNKALEL

## KLH-MTKRKKTINLNIQDAQKRTALHW ({KLH}-MTKRKKTINLNIQDAQKRTALHW; listed as Homo sapiens) [CLP 2977]
[1]; rabbit Rb1
  IgG titer × 10^5 (After first Immunization Rb1/Rb2): 25 × 10^5
  IgG titer × 10^5 (After second Immunization Rb1/Rb2): 256 × 10^5
[1]; rabbit Rb2
  IgG titer × 10^5 (After first Immunization Rb1/Rb2): 6 × 10^5
  IgG titer × 10^5 (After second Immunization Rb1/Rb2): 64 × 10^5

## 84 (NLVDVYGNM; listed as Homo sapiens) [compound 84]
HLA-A*0201 human T cells; Donor AP10
  BFA5 peptides eliciting high IFN-γ release (>200 spots/100,000 cells): NLVDVYGNM
peptide-loaded T2 cells; Donor AP10
  BFA5 peptides inducing CTL lysis of pulsed cells: NLVDVYGNM

## 61 (MLKKEIAML; listed as Homo sapiens) [compound 61]
HLA-A*0201 human T cells; Donor AP31
  BFA5 peptides eliciting high IFN-γ release (>200 spots/100,000 cells): MLKKEIAML

## 81 (ILKEKNAEL; listed as Homo sapiens) [compound 81]
HLA-A*0201 human T cells; Donor AP10
  BFA5 peptides eliciting high IFN-γ release (>200 spots/100,000 cells): ILKEKNAEL
HLA-A*0201 human T cells; Donor AP31
  BFA5 peptides eliciting high IFN-γ release (>200 spots/100,000 cells): ILKEKNAEL

## 74 (ATCGMKVSI; listed as Homo sapiens) [compound 74]
HLA-A*0201 human T cells; Donor AP10
  BFA5 peptides eliciting high IFN-γ release (>200 spots/100,000 cells): ATCGMKVSI
peptide-loaded T2 cells; Donor AP10
  BFA5 peptides inducing CTL lysis of pulsed cells: ATCGMKVSI

## 30 (KVMEINREV; listed as Homo sapiens) [compound 30]
HLA-A*0201 human T cells; Donor AP10
  BFA5 peptides eliciting high IFN-γ release (>200 spots/100,000 cells): KVMEINREV

## 9 (SIPTKALEL; listed as Homo sapiens) [compound 9]
HLA-A*0201 human T cells; Donor AP10
  BFA5 peptides eliciting high IFN-γ release (>200 spots/100,000 cells): SIPTKALEL
peptide-loaded T2 cells; Donor AP31
  BFA5 peptides inducing CTL lysis of pulsed cells: SIPTKALEL

## 37 (SLTPLLLSI; listed as Homo sapiens) [compound 37]
HLA-A*0201 human T cells; Donor AP10
  BFA5 peptides eliciting high IFN-γ release (>200 spots/100,000 cells): SLTPLLLSI
HLA-A*0201 human T cells; Donor AP31
  BFA5 peptides eliciting high IFN-γ release (>200 spots/100,000 cells): SLTPLLLSI
peptide-loaded T2 cells; Donor AP31
  BFA5 peptides inducing CTL lysis of pulsed cells: SLTPLLLSI

## 49 (SVPNKAFEL; listed as Homo sapiens) [compound 49]
HLA-A*0201 human T cells; Donor AP10
  BFA5 peptides eliciting high IFN-γ release (>200 spots/100,000 cells): SVPNKAFEL

## 67 (VLKKKLSEA; listed as Homo sapiens) [compound 67]
HLA-A*0201 human T cells; Donor AP31
  BFA5 peptides eliciting high IFN-γ release (>200 spots/100,000 cells): VLKKKLSEA

## KLH-NYNNHLKNRIYQYEKEKAETENS ({KLH}-NYNNHLKNRIYQYEKEKAETENS; listed as Homo sapiens) [CLP 2982]
[1]; rabbit Rb1
  IgG titer × 10^5 (After first Immunization Rb1/Rb2): 2/2 × 10^5
  IgG titer × 10^5 (After second Immunization Rb1/Rb2): 64 × 10^5
[1]; rabbit Rb2
  IgG titer × 10^5 (After first Immunization Rb1/Rb2): 2/2 × 10^5
  IgG titer × 10^5 (After second Immunization Rb1/Rb2): 32 × 10^5

## 28 (SLSKILDTV; listed as Homo sapiens) [compound 28]
HLA-A*0201 human T cells; Donor AP10
  BFA5 peptides eliciting high IFN-γ release (>200 spots/100,000 cells): SLSKILDTV
HLA-A*0201 human T cells; Donor AP31
  BFA5 peptides eliciting high IFN-γ release (>200 spots/100,000 cells): SLSKILDTV
peptide-loaded T2 cells; Donor AP31
  BFA5 peptides inducing CTL lysis of pulsed cells: SLSKILDTV

## 77 (AELQMTLKL; listed as Homo sapiens) [compound 77]
HLA-A*0201 human T cells; Donor AP10
  BFA5 peptides eliciting high IFN-γ release (>200 spots/100,000 cells): AELQMTLKL
peptide-loaded T2 cells; Donor AP10
  BFA5 peptides inducing CTL lysis of pulsed cells: AELQMTLKL
peptide-loaded T2 cells; Donor AP31
  BFA5 peptides inducing CTL lysis of pulsed cells: AELQMTLKL

## 72 (SLKINLNYA; listed as Homo sapiens) [compound 72]
HLA-A*0201 human T cells; Donor AP10
  BFA5 peptides eliciting high IFN-γ release (>200 spots/100,000 cells): SLKINLNYA
HLA-A*0201 human T cells; Donor AP31
  BFA5 peptides eliciting high IFN-γ release (>200 spots/100,000 cells): SLKINLNYA
peptide-loaded T2 cells; Donor AP31
  BFA5 peptides inducing CTL lysis of pulsed cells: SLKINLNVA

## KLH-TSEKFTWPAKGRPRKIAWEKKED ({KLH}-TSEKFTWPAKGRPRKIAWEKKED; listed as Homo sapiens) [CLP 2978]
[1]; rabbit Rb1
  IgG titer × 10^5 (After first Immunization Rb1/Rb2): 25/25 × 10^5
  IgG titer × 10^5 (After second Immunization Rb1/Rb2): 64 × 10^5
[1]; rabbit Rb2
  IgG titer × 10^5 (After first Immunization Rb1/Rb2): 25/25 × 10^5
  IgG titer × 10^5 (After second Immunization Rb1/Rb2): 256 × 10^5

## 32 (AVYSEILSV; listed as Homo sapiens) [compound 32]
HLA-A*0201 human T cells; Donor AP10
  BFA5 peptides eliciting high IFN-γ release (>200 spots/100,000 cells): AVYSEILSV

## 54 (GVTAEHYAV; listed as Homo sapiens) [compound 54]
HLA-A*0201 human T cells; Donor AP31
  BFA5 peptides eliciting high IFN-γ release (>200 spots/100,000 cells): GVTAEHYAV

## KLH-RLTLNQEEEKRRNADILNEKIRE ({KLH}-RLTLNQEEEKRRNADILNEKIRE; listed as Homo sapiens) [CLP 2980]
[1]; rabbit Rb1
  IgG titer × 10^5 (After first Immunization Rb1/Rb2): 25 × 10^5
  IgG titer × 10^5 (After second Immunization Rb1/Rb2): 1024 × 10^5
[1]; rabbit Rb2
  IgG titer × 10^5 (After first Immunization Rb1/Rb2): 12 × 10^5
  IgG titer × 10^5 (After second Immunization Rb1/Rb2): 128 × 10^5

## BFA4: tumor antigen BFA4 (SEQ ID NOS.: 1 and 2), compared with BFA5 in T-cell ELISPOT
HLA-A*0201 human T cells; four rounds of stimulation, HLA-A*0201+ donor AP10, counts per 100,000 cells
  ELISPOT reactivity (IFN-γ production) of peptide pools: markedly reactive

## 57 (KSQEPAFHI; listed as Homo sapiens) [compound 57]
HLA-A*0201 human T cells; Donor AP31
  BFA5 peptides eliciting high IFN-γ release (>200 spots/100,000 cells): KSQEPAFHI

## 85 (KCTALMLAV; listed as Homo sapiens) [compound 85]
HLA-A*0201 human T cells; Donor AP10
  BFA5 peptides eliciting high IFN-γ release (>200 spots/100,000 cells): KCTALMLAV

## 51 (NLNYAGDAL; listed as Homo sapiens) [compound 51]
HLA-A*0201 human T cells; Donor AP10
  BFA5 peptides eliciting high IFN-γ release (>200 spots/100,000 cells): NLNYAGDAL
HLA-A*0201 human T cells; Donor AP31
  BFA5 peptides eliciting high IFN-γ release (>200 spots/100,000 cells): NLNYAGDAL

## KLH-AENTMLTSKLKEKQDKEILEAEI ({KLH}-AENTMLTSKLKEKQDKEILEAEI; listed as Homo sapiens) [CLP 2981]
[1]; rabbit Rb1
  IgG titer × 10^5 (After first Immunization Rb1/Rb2): 8 × 10^5
  IgG titer × 10^5 (After second Immunization Rb1/Rb2): 256 × 10^5
[1]; rabbit Rb2
  IgG titer × 10^5 (After first Immunization Rb1/Rb2): 4 × 10^5
  IgG titer × 10^5 (After second Immunization Rb1/Rb2): 64 × 10^5

## KLH-DEILPSESKQKDYEENSWDTESL ({KLH}-DEILPSESKQKDYEENSWDTESL; listed as Homo sapiens) [CLP 2979]
[1]; rabbit Rb1
  IgG titer × 10^5 (After first Immunization Rb1/Rb2): 12 × 10^5
  IgG titer × 10^5 (After second Immunization Rb1/Rb2): 256 × 10^5
[1]; rabbit Rb2
  IgG titer × 10^5 (After first Immunization Rb1/Rb2): 25 × 10^5
  IgG titer × 10^5 (After second Immunization Rb1/Rb2): 512 × 10^5

## 11 (TVSQKDVCL; listed as Homo sapiens) [compound 11]
HLA-A*0201 human T cells; Donor AP10
  BFA5 peptides eliciting high IFN-γ release (>200 spots/100,000 cells): TVSQKDVCL

## 63 (ALRIQDIEL; listed as Homo sapiens) [compound 63]
HLA-A*0201 human T cells; Donor AP10
  BFA5 peptides eliciting high IFN-γ release (>200 spots/100,000 cells): ALRIQDIEL

## 59 (MLKLEIATL; listed as Homo sapiens) [compound 59]
HLA-A*0201 human T cells; Donor AP10
  BFA5 peptides eliciting high IFN-γ release (>200 spots/100,000 cells): MLKLEIATL
HLA-A*0201 human T cells; Donor AP31
  BFA5 peptides eliciting high IFN-γ release (>200 spots/100,000 cells): MLKLEIATL
peptide-loaded T2 cells; Donor AP31
  BFA5 peptides inducing CTL lysis of pulsed cells: MLKLEIATL

## 24 (QLQSKNMWL; listed as Homo sapiens) [compound 24]
HLA-A*0201 human T cells; Donor AP10
  BFA5 peptides eliciting high IFN-γ release (>200 spots/100,000 cells): QLQSKNMWL
HLA-A*0201 human T cells; Donor AP31
  BFA5 peptides eliciting high IFN-γ release (>200 spots/100,000 cells): QLQSKNMWL
peptide-loaded T2 cells; Donor AP31
  BFA5 peptides inducing CTL lysis of pulsed cells: QLQSKNMWL
